This is an account of results in ChEMBL document CHEMBL4304773, “Nitroimidazole-containing compounds and their antibacterial and antitubercular activities” (2019).

Values after ≈ are worked out from the molar mass of the structure shown.

Holding throughout (format): functional
Assay [1] deals with Helicobacter pylori. Nature of the assay: Antibacterial activity against drug-sensitive Helicobacter pylori assessed as zone of inhibition at 8 ug/disc. As to conditions: read-out: IZ.
Assay [2] deals with Clostridioides difficile. Nature of the assay: Antibacterial activity against Clostridium difficile 630 assessed as zone of inhibition at 2.5 ug/disc after 24 hrs. As to conditions: Clostridioides difficile, 630, 24 h; read-out: IZ.
The test system of assay [3] is Helicobacter pylori. Nature of the assay: Antibacterial activity against drug-resistant Helicobacter pylori assessed as zone of inhibition at 8 ug/disc. The conditions noted are these: read-out: IZ.
Assay [4] has as its system Helicobacter pylori. The assay can be described thus: Antibacterial activity against metronidazole-resistant Helicobacter pylori.
For assay [5], the system named is Clostridioides difficile. The assay can be described thus: Antibacterial activity against Clostridium difficile ATCC 43603 assessed as zone of inhibition at 2.5 ug/disc after 24 hrs. The conditions noted are these: ATCC 43603, 24 h, read-out: IZ.
The test system of assay [6] is Helicobacter pylori. Nature of the assay: Antibacterial activity against Helicobacter pylori clinical isolate assessed as zone of inhibition at 8 ug/disc. The conditions noted are these: read-out: IZ.
Assay [7] has as its system Clostridioides difficile. The assay can be described thus: Antibacterial activity against Clostridium difficile R20291 assessed as zone of inhibition at 2.5 ug/disc after 24 hrs. The conditions noted are these: read-out: IZ.
Assay [8] relates to Enterococcus faecalis. Nature of the assay: Antibacterial activity against Enterococcus faecalis after 24 hrs.
In assay [9] the test system is Staphylococcus epidermidis. The assay can be described thus: Antibacterial activity against Staphylococcus epidermidis ATCC 12228 after 18 hrs by two fold serial dilution. As to conditions: ATCC 12228, 18 h.
The subject of assay [10] is Pseudomonas aeruginosa. The assay can be described thus: Antibacterial activity against Pseudomonas aeruginosa after 24 hrs.
For assay [11], the system named is Staphylococcus aureus. The assay can be described thus: Antibacterial activity against methicillin-resistant Staphylococcus aureus after 24 hrs.
The subject of a further assay is Bacillus subtilis. The assay can be described thus: Antibacterial activity against Bacillus subtilis PTCC 1023 after 18 hrs by two fold serial dilution. As to conditions: PTCC 1023, 18 h.
Assay [12] has as its system Escherichia coli. The assay can be described thus: Antibacterial activity against Escherichia coli infected in mouse.
Assay [13] relates to Staphylococcus aureus. Nature of the assay: Antibacterial activity against Staphylococcus aureus ATCC 25923 after 24 hrs. As to conditions: ATCC 25923, 24 h.
For assay [14], the system named is Escherichia coli. Nature of the assay: Antibacterial activity against Escherichia coli ATCC 25922 after 24 hrs. The conditions noted are these: ATCC 25922, 24 h.
Assay [15] concerns Klebsiella pneumoniae. The assay can be described thus: Antibacterial activity against Klebsiella pneumoniae ATCC 10031 after 18 hrs by two fold serial dilution. The conditions noted are these: ATCC 10031, 18 h.
Assay [16] relates to Escherichia coli. Nature of the assay: Antibacterial activity against Escherichia coli ATCC 8739 after 18 hrs by two fold serial dilution. As to conditions: ATCC 8739, 18 h.
For assay [17], the system named is Escherichia coli. Nature of the assay: Antibacterial activity against drug-resistant Escherichia coli after 24 hrs.
Assay [18] relates to Pseudomonas aeruginosa. The assay can be described thus: Antibacterial activity against Pseudomonas aeruginosa ATCC 27853 after 24 hrs. The conditions noted are these: ATCC 27853, 24 h.
Assay [19] relates to Klebsiella pneumoniae. Nature of the assay: Antibacterial activity against Klebsiella pneumoniae after 24 hrs.
Assay [20] deals with Staphylococcus aureus. The assay can be described thus: Antibacterial activity against Staphylococcus aureus ATCC 6538 after 18 hrs by two fold serial dilution. The conditions noted are these: ATCC 6538, 18 h.
Assay [21] deals with Staphylococcus aureus. The assay can be described thus: Antibacterial activity against Staphylococcus aureus ATCC 29213 after 24 hrs. The conditions noted are these: ATCC 29213, 24 h.
Assay [22] deals with Staphylococcus epidermidis. Nature of the assay: Potency index, ratio of chloramphenicol MIC to test compound MIC for Staphylococcus epidermidis.
In assay [23] the test system is Enterococcus faecalis. Nature of the assay: Antibacterial activity against Enterococcus faecalis.
Assay [24] deals with Enterococcus faecalis. Nature of the assay: Potency index, ratio of chloramphenicol MIC to test compound MIC for Enterococcus faecalis.
In assay [25] the test system is Staphylococcus epidermidis. The assay can be described thus: Antibacterial activity against Staphylococcus epidermidis.
For assay [26], the system named is Helicobacter pylori. Nature of the assay: Antibacterial activity against Helicobacter pylori.
Assay [27] has as its system Helicobacter pylori. Nature of the assay: Antibacterial activity against Helicobacter pylori NCTC 11637.
Assay [28] deals with Helicobacter pylori. Nature of the assay: Potency index, ratio of metronidazole MIC90 to test compound MIC90 for metronidazole-resistant Helicobacter pylori.
Assay [29] relates to Helicobacter pylori. Nature of the assay: Antibacterial activity against metronidazole-resistant Helicobacter pylori clinical isolates.
Assay [30] deals with Escherichia coli. The assay can be described thus: Potency index, ratio of norfloxacin MIC to test compound MIC for drug-resistant Escherichia coli.

In general, MIC90 refers to the lowest concentration that inhibits either 90% of growth or 90% of the strains tested, depending on the study. Low readings indicate higher susceptibility, high ones lower susceptibility. `Cc1ncc([N+](=O)[O-])n1CCO` [METRONIDAZOLE]: the zone of inhibition at 8 µg/disc in the assay with Helicobacter pylori [1] stood at 18 mm; in the assay with Helicobacter pylori [3], 11 mm; in the assay with Helicobacter pylori [6] it was 16.3 mm. Further, the zone of inhibition at 2.5 µg/disc in the assay with Clostridioides difficile [2], with Clostridioides difficile [5] and with Clostridioides difficile [7] was 9 to 22 mm each time. The compound further showed an MIC90 with Helicobacter pylori [4] above 32 µg/mL.
As a reminder, the MIC is the least concentration at which growth counts as inhibited. The low end stands for a more susceptible organism, the high end for a less susceptible organism. One may read the ED50 as the dose that gives a 50% effect, or the effect in half of the subjects. A higher ED50 goes with a need for a large dose. Regarding `CCn1cc(C(=O)O)c(=O)c2cc(F)c(N3CCNCC3)cc21` [NORFLOXACIN], the MIC fell in the range of 13 to 1600 µM (≈ 4.15 to 512 µg/mL) against Enterococcus faecalis [8]; 0.13 to 1 µg/mL (≈ 0.407 to 3.13 µM) in [9]; 13 to 1600 µM (≈ 4.15 to 512 µg/mL) against Pseudomonas aeruginosa [10]; 13 to 1600 µM (≈ 4.15 to 512 µg/mL) in the assay on Staphylococcus aureus [11]; 0.13 to 1 µg/mL (≈ 0.407 to 3.13 µM) in the assay with Bacillus subtilis; 13 to 1600 µM (≈ 4.15 to 512 µg/mL) against Staphylococcus aureus [13]. Also, the MIC was 13 to 1600 µM (≈ 4.15 to 512 µg/mL) in the assay with Escherichia coli [14]; 0.13 to 1 µg/mL (≈ 0.407 to 3.13 µM) against Klebsiella pneumoniae [15]; 0.13 to 1 µg/mL (≈ 0.407 to 3.13 µM) in the assay on Escherichia coli [16]; 100 µM (≈ 31.9 µg/mL) in the assay with Escherichia coli [17]; 13 to 1600 µM (≈ 4.15 to 512 µg/mL) with Pseudomonas aeruginosa [18]; 13 to 1600 µM (≈ 4.15 to 512 µg/mL) against Klebsiella pneumoniae [19]. The figures for the MIC against Staphylococcus aureus [20] and in the assay with Staphylococcus aureus [21] were 0.13 to 1 µg/mL (≈ 0.407 to 3.13 µM) and 13 to 1600 µM (≈ 4.15 to 512 µg/mL), respectively. In addition, the median effective dose (ED50) in the assay on Escherichia coli [12] was 5.6 mg/kg.
Regarding `Cc1ncc([N+](=O)[O-])n1CCN1C(=O)S/C(=C\c2ccccc2)C1=O`, the figures for the Ratio (in [22]; in the assay on Enterococcus faecalis [24]) were 2 and 8, respectively. Also, the minimal inhibitory concentration (MIC) (in the assay on Enterococcus faecalis [23]; in [25]) was 62.5 µg/mL (≈ 174 µM) each time.
As to `Cc1ncc([N+](=O)[O-])n1CCNCc1no[n+]([O-])c1C#N`, the MIC against Helicobacter pylori [26] was 5 µg/mL (≈ 17.1 µM); in the assay on Helicobacter pylori [4], 0.25 to 1 µg/mL (≈ 0.853 to 3.41 µM). The MIC90 with Helicobacter pylori [26] is 0.5 µg/mL (≈ 1.71 µM); in the assay on Helicobacter pylori [27], 0.5 to 32 µg/mL (≈ 1.71 to 109 µM); in the assay with Helicobacter pylori [4] it was 1 µg/mL (≈ 3.41 µM); against Helicobacter pylori [29] it was 0.5 to 32 µg/mL (≈ 1.71 to 109 µM). Also, in the assay with Helicobacter pylori [28], the Ratio is listed as above 32.
As for `COc1cc(/C=C(\C#N)n2cc([N+](=O)[O-])nc2C)c2c(c1OCc1ccccc1F)CN1CCc3cc4c(cc3C1C2)OCO4` (stereo not drawn), the MIC with Enterococcus faecalis [8] is 3 to 1020 µM (≈ 1.83 to 622 µg/mL); with Pseudomonas aeruginosa [10] it was 3 to 1020 µM (≈ 1.83 to 622 µg/mL); against Staphylococcus aureus [11], 3 to 1020 µM (≈ 1.83 to 622 µg/mL); in the assay with Staphylococcus aureus [13], 3 to 1020 µM (≈ 1.83 to 622 µg/mL); in the assay with Escherichia coli [14] it was 3 to 1020 µM (≈ 1.83 to 622 µg/mL); against Escherichia coli [17] it was 3 µM (≈ 1.83 µg/mL). Besides, the MIC against Pseudomonas aeruginosa [18], against Klebsiella pneumoniae [19] and against Staphylococcus aureus [21] was 3 to 1020 µM (≈ 1.83 to 622 µg/mL) throughout. In addition, the Ratio in the assay with Escherichia coli [30] was 33.
